Results published in ChEMBL document CHEMBL1201862, “PubChem BioAssay data set” (2004).
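Interpolation was linear, between the two tested concentrations surrounding the appropriate level; five concentrations were tested over 48 hours in 96-well plates. At the GI50, growth is halved.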 The source made the active and inactive calls. No stated cut-off is given here; in the data, active = GI50 up to about 1.1 µM and inactive = higher.

Legend:
Test in all cases: growth of human tumour cells (NCI), 48 h
KM-20L2 = tested on: KM-20L2
M19-MEL = tested on: M19-MEL
DMS-114 = tested on: DMS-114
SNB-75 = tested on: SNB-75
HCT-15 = tested on: HCT-15
OVCAR-5 = tested on: OVCAR-5
786-0 = tested on: 786-0
HL-60 = tested on: HL-60
EKVX = tested on: EKVX
NCI-H23 = tested on: NCI-H23
M14 = tested on: M14
OVCAR-8 = tested on: OVCAR-8
UACC-62 = tested on: UACC-62
RXF 393 = tested on: RXF 393
NCI-H226 = tested on: NCI-H226
Malme-3M = tested on: Malme-3M
K562 = tested on: K562
SK-MEL-2 = tested on: SK-MEL-2
IGROV-1 = tested on: IGROV-1
SF-295 = tested on: SF-295
UACC-257 = tested on: UACC-257
XF498 = tested on: XF498
DLD-1 = tested on: DLD-1
A549 = tested on: A549
NCI-H522 = tested on: NCI-H522
HT-29 = tested on: HT-29
A498 = tested on: A498
SN12C = tested on: SN12C
SF-539 = tested on: SF-539
ACHN = tested on: ACHN
HOP-62 = tested on: HOP-62
DMS-273 = tested on: DMS-273
NCI-H460 = tested on: NCI-H460
CAKI-1 = tested on: CAKI-1
SK-OV-3 = tested on: SK-OV-3
COLO 205 = tested on: COLO 205
SNB-19 = tested on: SNB-19
CCRF-CEM = tested on: CCRF-CEM
OVCAR-4 = tested on: OVCAR-4
SF-268 = tested on: SF-268
KM12 = tested on: KM12
SNB-78 = tested on: SNB-78
UO-31 = tested on: UO-31
LXFL 529 = tested on: LXFL 529
MOLT-4 = tested on: MOLT-4
HCC 2998 = tested on: HCC 2998
OVCAR-3 = tested on: OVCAR-3
SK-MEL-5 = tested on: SK-MEL-5
SW-620 = tested on: SW-620
SK-MEL-28 = tested on: SK-MEL-28
TK-10 = tested on: TK-10
RPMI-8226 = tested on: RPMI-8226
HOP-92 = tested on: HOP-92
LOX IMVI = tested on: LOX IMVI
HOP-18 = tested on: HOP-18
U-251 = tested on: U-251
HCT-116 = tested on: HCT-116

COc1cccc(C2=NC(C(C)C)CO2)c1OC (centres undefined)
GI50 (KM-20L2): > 100 µM (inactive) | GI50 (M19-MEL): > 100 µM (inactive) | GI50 (DMS-114): > 100 µM (inactive) | GI50 (SNB-75): > 100 µM (inactive) | GI50 (HCT-15): > 100 µM | GI50 (OVCAR-5): > 100 µM (inactive) | GI50 (786-0): > 100 µM (inactive) | GI50 (HL-60): > 100 µM (inactive) | GI50 (EKVX): > 100 µM (inactive) | GI50 (NCI-H23): > 100 µM (inactive) | GI50 (M14): > 100 µM (inactive) | GI50 (OVCAR-8): > 100 µM (inactive) | GI50 (UACC-62): > 100 µM (inactive) | GI50 (RXF 393): > 100 µM (inactive) | GI50 (NCI-H226): > 100 µM (inactive) | GI50 (Malme-3M): > 100 µM (inactive) | GI50 (K562): > 100 µM (inactive) | GI50 (SK-MEL-2): > 100 µM (inactive) | GI50 (IGROV-1): > 100 µM (inactive) | GI50 (SF-295): > 100 µM (inactive) | GI50 (UACC-257): > 100 µM (inactive) | GI50 (XF498): > 100 µM (inactive) | GI50 (DLD-1): > 100 µM (inactive) | GI50 (A549): > 100 µM (inactive) | GI50 (NCI-H522): > 100 µM (inactive) | GI50 (HT-29): > 100 µM (inactive) | GI50 (A498): > 100 µM (inactive) | GI50 (SN12C): > 100 µM (inactive) | GI50 (SF-539): > 100 µM (inactive) | GI50 (ACHN): > 100 µM (inactive) | GI50 (HOP-62): > 100 µM (inactive) | GI50 (DMS-273): > 100 µM (inactive) | GI50 (NCI-H460): > 100 µM (inactive) | GI50 (CAKI-1): > 100 µM (inactive) | GI50 (SK-OV-3): > 100 µM (inactive) | GI50 (COLO 205): > 100 µM (inactive) | GI50 (SNB-19): > 100 µM (inactive) | GI50 (CCRF-CEM): > 100 µM (inactive) | GI50 (OVCAR-4): > 100 µM (inactive) | GI50 (SF-268): > 100 µM (inactive) | GI50 (KM12): > 100 µM (inactive) | GI50 (SNB-78): > 100 µM (inactive) | GI50 (UO-31): > 100 µM (inactive) | GI50 (LXFL 529): > 100 µM (inactive) | GI50 (MOLT-4): > 100 µM (inactive) | GI50 (HCC 2998): > 100 µM (inactive) | GI50 (OVCAR-3): > 100 µM (inactive) | GI50 (SK-MEL-5): > 100 µM (inactive) | GI50 (SW-620): > 100 µM (inactive) | GI50 (SK-MEL-28): > 100 µM (inactive) | GI50 (TK-10): > 100 µM (inactive) | GI50 (RPMI-8226): > 100 µM (inactive) | GI50 (HOP-92): > 100 µM (inactive) | GI50 (LOX IMVI): > 100 µM (inactive)

COC(=O)[C@H]1C2CC[C@@H]3C45C[C@@H](c6ccoc6)O[C@@H]4O[C@@H](O2)C31CCC5C (some centres undefined)
GI50 (KM-20L2): > 100 µM (inactive) | GI50 (HCT-15): 86.3 µM | GI50 (OVCAR-5): > 100 µM (inactive) | GI50 (786-0): 91.2 µM (inactive) | GI50 (HL-60): > 100 µM (inactive) | GI50 (EKVX): 92.3 µM (inactive) | GI50 (NCI-H23): > 100 µM (inactive) | GI50 (M14): > 100 µM (inactive) | GI50 (OVCAR-8): > 100 µM (inactive) | GI50 (UACC-62): > 100 µM (inactive) | GI50 (NCI-H226): 76.7 µM (inactive) | GI50 (Malme-3M): > 100 µM (inactive) | GI50 (K562): 32.1 µM (inactive) | GI50 (SK-MEL-2): 71.1 µM (inactive) | GI50 (IGROV-1): > 100 µM (inactive) | GI50 (SF-295): 97.5 µM (inactive) | GI50 (UACC-257): > 100 µM (inactive) | GI50 (XF498): > 100 µM (inactive) | GI50 (DLD-1): > 100 µM (inactive) | GI50 (A549): > 100 µM (inactive) | GI50 (NCI-H522): 91.6 µM (inactive) | GI50 (HOP-18): > 100 µM (inactive) | GI50 (HT-29): > 100 µM (inactive) | GI50 (A498): > 100 µM (inactive) | GI50 (SN12C): > 100 µM (inactive) | GI50 (SF-539): > 100 µM (inactive) | GI50 (ACHN): > 100 µM (inactive) | GI50 (U-251): > 100 µM (inactive) | GI50 (HCT-116): > 100 µM (inactive) | GI50 (HOP-62): > 100 µM (inactive) | GI50 (DMS-273): > 100 µM (inactive) | GI50 (NCI-H460): > 100 µM (inactive) | GI50 (CAKI-1): > 100 µM (inactive) | GI50 (SK-OV-3): > 100 µM (inactive) | GI50 (COLO 205): > 100 µM (inactive) | GI50 (SNB-19): > 100 µM (inactive) | GI50 (CCRF-CEM): 56.4 µM (inactive) | GI50 (OVCAR-4): > 100 µM (inactive) | GI50 (SF-268): > 100 µM (inactive) | GI50 (KM12): > 100 µM (inactive) | GI50 (SNB-78): 25.7 µM (inactive) | GI50 (UO-31): 68.5 µM (inactive) | GI50 (LXFL 529): 57.7 µM (inactive) | GI50 (MOLT-4): 69.7 µM (inactive) | GI50 (HCC 2998): 95.9 µM (inactive) | GI50 (OVCAR-3): > 100 µM (inactive) | GI50 (SK-MEL-5): > 100 µM (inactive) | GI50 (SW-620): > 100 µM (inactive) | GI50 (TK-10): > 100 µM (inactive) | GI50 (RPMI-8226): > 100 µM (inactive) | GI50 (HOP-92): 44.6 µM (inactive) | GI50 (LOX IMVI): > 100 µM (inactive)

CCCCNC1=C(C(=O)OCC)C(=O)CO1
GI50 (KM-20L2): > 100 µM (inactive) | GI50 (M19-MEL): > 100 µM (inactive) | GI50 (DMS-114): > 100 µM (inactive) | GI50 (SNB-75): 80.2 µM (inactive) | GI50 (HCT-15): > 100 µM | GI50 (OVCAR-5): > 100 µM (inactive) | GI50 (786-0): > 100 µM (inactive) | GI50 (HL-60): > 100 µM (inactive) | GI50 (EKVX): > 100 µM (inactive) | GI50 (NCI-H23): > 100 µM (inactive) | GI50 (M14): > 100 µM (inactive) | GI50 (OVCAR-8): > 100 µM (inactive) | GI50 (UACC-62): > 100 µM (inactive) | GI50 (RXF 393): > 100 µM (inactive) | GI50 (NCI-H226): > 100 µM (inactive) | GI50 (Malme-3M): > 100 µM (inactive) | GI50 (K562): > 100 µM (inactive) | GI50 (SK-MEL-2): > 100 µM (inactive) | GI50 (IGROV-1): > 100 µM (inactive) | GI50 (SF-295): > 100 µM (inactive) | GI50 (UACC-257): > 100 µM (inactive) | GI50 (XF498): > 100 µM (inactive) | GI50 (DLD-1): > 100 µM (inactive) | GI50 (A549): > 100 µM (inactive) | GI50 (NCI-H522): > 100 µM (inactive) | GI50 (HOP-18): > 100 µM (inactive) | GI50 (HT-29): > 100 µM (inactive) | GI50 (SN12C): > 100 µM (inactive) | GI50 (SF-539): > 100 µM (inactive) | GI50 (ACHN): > 100 µM (inactive) | GI50 (U-251): > 100 µM (inactive) | GI50 (HOP-62): > 100 µM (inactive) | GI50 (DMS-273): > 100 µM (inactive) | GI50 (NCI-H460): > 100 µM (inactive) | GI50 (CAKI-1): > 100 µM (inactive) | GI50 (SK-OV-3): > 100 µM (inactive) | GI50 (COLO 205): > 100 µM (inactive) | GI50 (SNB-19): > 100 µM (inactive) | GI50 (CCRF-CEM): > 100 µM (inactive) | GI50 (OVCAR-4): > 100 µM (inactive) | GI50 (SF-268): > 100 µM (inactive) | GI50 (KM12): > 100 µM (inactive) | GI50 (UO-31): > 100 µM (inactive) | GI50 (LXFL 529): > 100 µM (inactive) | GI50 (MOLT-4): > 100 µM (inactive) | GI50 (HCC 2998): > 100 µM (inactive) | GI50 (OVCAR-3): > 100 µM (inactive) | GI50 (SK-MEL-5): > 100 µM (inactive) | GI50 (SW-620): > 100 µM (inactive) | GI50 (SK-MEL-28): > 100 µM (inactive) | GI50 (TK-10): > 100 µM (inactive) | GI50 (RPMI-8226): > 100 µM (inactive) | GI50 (LOX IMVI): > 100 µM (inactive)
